{"source": "paper PMC12084609", "about": "“Structural insights into small-molecule agonist recognition and activation of complement receptor C3aR” (The EMBO Journal, 2025)", "origin": "cited, not measured here", "tested_on": "C3aR", "set-up": "method as in Mathieu et al, 2005; Rodriguez et al, 2024", "details": "blockade of calcium influx attributed to β-arrestin mediated internalization; ref Mathieu et al, 2005; Rodriguez et al, 2024; cited from earlier work"}
{"smiles": "NC(N)=NCCC[C@H](NC(=O)COCC(c1ccccc1)c1ccccc1)C(=O)O", "note": "[SB290157]", "values": [{"measurement": "activity at C3aR", "value": "potent agonist"}]}
